This passage reports IC50 results from ChEMBL document CHEMBL4725460, “Novel Amide-Substituted Heterocyclic Compounds for Treating Inflammatory and Autoimmune Diseases” (ACS Med Chem Lett, 2020).

As a reminder, the IC50 is the midpoint of a concentration-inhibition curve.

The experiment in a line: Inhibition of IFNalpha in human whole blood assessed as reduction in IFNalpha-induced STAT phosphorylation by fluorescence assay. Format: tissue-based.
Consider `[2H]C([2H])([2H])NC(=O)c1nnc(NC(=O)NCC)cc1Nc1cccc(-c2ncn(C)n2)c1OC`, for which the IC50 turned out to be 20 nM.

As to `[2H]C([2H])([2H])NC(=O)c1nnc(NC(=O)OC)cc1Nc1cccc(-c2noc(CN3CCCCS3(=O)=O)n2)c1OC`, the IC50 was 60 nM.

In the case of `COC(=O)Nc1cc(Nc2cccc(-c3noc(CN4CCCCS4(=O)=O)n3)c2OC)c(C(N)=O)nn1`, the IC50 is 30 nM. Turning to `[2H]C([2H])([2H])NC(=O)c1nnc(NC(=O)NCC=C)cc1Nc1cccc(-c2ncn(C)n2)c1OC`, the IC50 came to 60 nM. As for `COC(=O)Nc1cc(Nc2cccc(-c3ncn(C)n3)c2OC)c(C(N)=O)nn1`, the figure is 70 nM; as for `[2H]C([2H])([2H])NC(=O)c1nnc(NC(=O)NCC#C)cc1Nc1cccc(-c2ncn(C)n2)c1OC`, 60 nM.
